According to US20240182503A1, “MACROCYCLE COMPLEMENT FACTOR B INHIBITORS” (priority 2021, published 2024):
Read-outs that look alike come from different tables or passages of the source.

What was measured:
[1] = rcm bond, DCM
CVF-Bb complex = CVF-Bb complex (Homo sapiens (Human), UniProt P00751); test: biochemical; type: biochemical
Experimental: CVF-Bb complex, prepared from purified cobra venom factor, (3 nM) is incubated with a compound of the disclosure at various concentrations for 10 minutes at room temperature in PBS (pH 7.4) containing 10 mM MgCl2 and 0.05% (w/v) CHAPS. Human Complement C3 substrate is added to a final concentration of 1 μM. After 1 hour incubation at room temperature, the enzyme reaction is stopped by addition of a cocktail of concentrated pan-protease inhibitors. The product of the reaction, C3a, is quantified by means of an enzyme-linked-immunosorbent assay and/or denaturing gel electrophoresis (SDS-PAGE). IC50 values are calculated from percentage of inhibition of CVF-Bb activity as a function of test compound concentration.

**Q.** With `COC(=O)c1ccc2c(c1)OCCCCC=CCO[C@H]1CCN(C(=O)OC(C)(C)C)[C@H]2C1` as the compound, how does the ring closure, isolated yield ([1]; from C=CCCCCOc1cc(C(=O)OC)ccc1[C@@H]1C[C@@H](OCC=C)CCN1C(=O)OC(C)(C)C, 14-membered ring, Grubbs I (20 mol%), 2.15 mM, 25.0 °C, 18.0 h) read?
**A.** 72.4%

**Q.** And the ring closure, isolated yield ([1]; from C=CCCCCOc1cc(C(=O)OC)ccc1[C@@H]1C[C@@H](OCC=C)CCN1C(=O)OC(C)(C)C, 14-membered ring, Grubbs I (20 mol%), 2.17 mM, 25.0 °C, 18.0 h)?
**A.** 83.2%

**Q.** Which ring closure, isolated yield ([1]; from C=CCOc1ccc2c(C(=O)OC)ccc([C@@H]3C[C@@H](OCC=C)CCN3C(=O)OC(C)(C)C)c2c1, 13-membered ring, Grubbs I, 2.1 mM, 25.0 °C, 18.0 h) does the source give for `COC(=O)c1ccc2c3cc(ccc13)OCC=CCO[C@H]1CCN(C(=O)OC(C)(C)C)[C@H]2C1` here?
**A.** 67.1%

**Q.** With `CC(C)(C)OC(=O)N1CCC2(O)CC=CCCCCOc3cc(Br)ccc3[C@@H]1C2` as the compound, how does the ring closure, isolated yield ([1]; from C=CCCCCOc1cc(Br)ccc1[C@@H]1CC(O)(CC=C)CCN1C(=O)OC(C)(C)C, 13-membered ring, Grubbs I, 2.5 mM, 25.0 °C, 48.0 h) read?
**A.** 65.9%

**Q.** With `COC(=O)c1ccc2c3cc(ccc13)OCCCC=CCO[C@@H]1CCN(C(=O)OC(C)(C)C)[C@@H]2C1` as the compound, how does the ring closure, isolated yield ([1]; from C=CCCCOc1ccc2c(C(=O)OC)ccc([C@H]3C[C@H](OCC=C)CCN3C(=O)OC(C)(C)C)c2c1, 15-membered ring, Grubbs I, 1.96 mM, 25.0 °C, 18.0 h) read?
**A.** 74%

**Q.** Which ring closure, isolated yield ([1]; from C=CCCOc1cc(C(=O)OC)ccc1[C@@H]1C[C@@H](OCC=C)CCN1C(=O)OC(C)(C)C, 12-membered ring, Grubbs I (20 mol%), 2.22 mM, 25.0 °C, 18.0 h) does the source give for `COC(=O)c1ccc2c(c1)OCCC=CCO[C@H]1CCN(C(=O)OC(C)(C)C)[C@H]2C1` here?
**A.** 61.9%

**Q.** With `COC(=O)c1ccc2c(c1)OCCCC=CCO[C@H]1CCN(C(=O)OC(C)(C)C)[C@H]2C1` as the compound, how does the ring closure, isolated yield ([1]; from C=CCCCOc1cc(C(=O)OC)ccc1[C@@H]1C[C@@H](OCC=C)CCN1C(=O)OC(C)(C)C, 13-membered ring, Grubbs I (20 mol%), 2.22 mM, 25.0 °C, 18.0 h) read?
**A.** 68.8%

**Q.** For `C=CCCCOc1cc(Br)ccc1[C@@H]1C[C@@H](O)CCN1C(=O)OCc1ccccc1`, which ring closure, isolated yield ([1]; the molecule shown is the open-chain precursor, 13-membered ring, Grubbs I (5 mol%), 1.75 mM, 25.0 °C) is on record?
**A.** 76.4%

**Q.** With `COC(=O)c1ccc2c3cc(ccc13)OCCC=CCO[C@H]1CCN(C(=O)OC(C)(C)C)[C@H]2C1` as the compound, how does the ring closure, isolated yield ([1]; from C=CCCOc1ccc2c(C(=O)OC)ccc([C@@H]3C[C@@H](OCC=C)CCN3C(=O)OC(C)(C)C)c2c1, 14-membered ring, Grubbs I, 3.2 mM, 16.0 h) read?
**A.** 33.4%

**Q.** With `COC(=O)c1ccc2c3cc(ccc13)OCCCC=CCO[C@H]1CCN(C(=O)OC(C)(C)C)[C@H]2C1` as the compound, how does the ring closure, isolated yield ([1]; from C=CCCCOc1ccc2c(C(=O)OC)ccc([C@@H]3C[C@@H](OCC=C)CCN3C(=O)OC(C)(C)C)c2c1, 15-membered ring, Grubbs I, 1.95 mM, 25.0 °C, 18.0 h) read?
**A.** 75.3%

**Q.** And the ring closure, isolated yield ([1]; from C=CCCCOc1ccc2c(C(=O)OC)ccc([C@@H]3C[C@@H](OCC=C)CCN3C(=O)OC(C)(C)C)c2c1, 15-membered ring, Grubbs I, 2.0 mM, 25.0 °C, 18.0 h)?
**A.** 22.7%

**Q.** For `COc1cc(C)c2[nH]ccc2c1CN1CC[C@H]2C[C@H]1c1ccc(C(=O)NS(C)(=O)=O)cc1CCCCCCCCO2` [Ex. 65, (1^2S,1^4S)-1^1-((5-methoxy-7-methyl-1H-indol-4-yl)methyl)-N-(methylsulfonyl)-11-oxa-1(2,4)-piperidina-2(1,2)-benzenacycloundecaphane-2^4-carboxamide], which IC50 (CVF-Bb complex; read-out: IC50) is on record?
**A.** 0.139 µM

**Q.** Which IC50 (CVF-Bb complex; read-out: IC50) does the source give for `COc1cc(C)c2[nH]ccc2c1CN1CC[C@H]2C[C@H]1c1ccc(C(=O)O)c3ccc(cc13)OCCC/C=C/CO2` [Ex. 48, (1^2S,1^4S,E)-1^1-((5-methoxy-7-methyl-1H-indol-4-yl)methyl)-3,10-dioxa-1(2,4)-piperidina-2(1,7)-naphthalenacyclodecaphan-7-ene-2^4-carboxylic acid] here?
**A.** 0.0837 µM

**Q.** Which IC50 (CVF-Bb complex; read-out: IC50) does the source give for `COc1cc(C)c2[nH]ccc2c1CN1CC[C@H]2C[C@H]1c1ccc(C(=O)O)cc1OCCCCCO2` [Ex. 8, (1^2S,1^4S)_1^1-((5-methoxy-7-methyl-1H-indol-4-yl)methyl)-3,9-dioxa-1(2,4)-piperidina-2(1,2)-benzenacyclononaphane-2^4-carboxylic acid] here?
**A.** 0.397 µM

**Q.** Which IC50 (CVF-Bb complex) does the source give for `CCO[C@H]1CCN(Cc2c(OC)cc(C)c3[nH]ccc23)[C@H](c2ccc(C(=O)NS(=O)(=O)CCNC(C)=O)cc2)C1` [Compar. Ex. 2, N-((2-acetamidoethyl)sulfonyl)-4-((2S,4S)-4-ethoxy-1-((5-methoxy-7-methyl-1H-indol-4-yl)methyl)piperidin-2-yl)benzamide, reference compound] here?
**A.** 0.395 µM

**Q.** For `CCO[C@H]1CCN2Cc3c(cc(C)c4[nH]ccc34)OCCCCCCCCCOc3cc(C(=O)O)ccc3[C@@H]2C1` [Ex. 31, (20bS,22S)-22-ethoxy-4-methyl-3,7,8,9,10,11,12,13,14,15,20b,21,22,23,24,26-hexadecahydrobenzo[7,8]pyrido[1′,2′:5,6][1,9, 5]dioxaazacyclooctadecino[3,2-e]indole-18-carboxylic acid], which IC50 (CVF-Bb complex) is on record?
**A.** 2.87 µM

**Q.** For `COc1cc(C)c2[nH]ccc2c1CN1CC[C@H]2C[C@H]1c1ccc(C(=O)NS(=O)(=O)C3(C)CC3)cc1OCCCCCO2` [Ex. 67, (1^2S,1^4S)-1^1-((5-methoxy-7-methyl-1H-indol-4-yl)methyl)-N-((1-methylcyclopropyl)sulfonyl)-3,9-dioxa-1(2,4)-piperidina-2(1,2)-benzenacyclononaphane-2^4-carboxamide], which IC50 (CVF-Bb complex; read-out: IC50) is on record?
**A.** 0.33 µM

**Q.** For `COc1cc(C)c2[nH]ccc2c1CN1CC[C@H]2C[C@H]1c1ccc(C(=O)NS(C)(=O)=O)cc1OCCCCCO2` [Ex. 40, (1^2R,1^4R)-1^1-((5-methoxy-7-methyl-1H-indol-4-yl)methyl)-N-(methylsulfonyl)-3,9-dioxa-1(2,4)-piperidina-2(1,2)-benzenacyclononaphane-2^4-carboxamide], which IC50 (CVF-Bb complex) is on record?
**A.** 0.309 µM

**Q.** With `COc1cc(C)c2[nH]ccc2c1CN1CC[C@@H]2CCCCCCCOc3cc(C(=O)O)ccc3[C@@H]1C2` [Ex. 77, (1^2S,1^4S)-1^1-((5-methoxy-7-methyl-1H-indol-4-yl)methyl)-3-oxa-1(2,4)-piperidina-2(1,2)-benzenacyclodecaphane-2^4-carboxylic acid] as the compound, how does the IC50 (CVF-Bb complex; read-out: IC50) read?
**A.** 0.0856 µM

**Q.** With `COc1cc(C)c2[nH]ccc2c1CN1CC[C@H]2C[C@H]1c1ccc(C(=O)NS(=O)(=O)c3ccccc3)cc1OCCCCCCO2` [Ex. 57, (1^2S,1^4S)-1^1-((5-methoxy-7-methyl-1H-indol-4-yl)methyl)-N-(phenylsulfonyl)-3,10-dioxa-1(2,4)-piperidina-2(1,2)-benzenacyclodecaphane-2^4-carboxamide] as the compound, how does the IC50 (CVF-Bb complex; read-out: IC50) read?
**A.** 0.153 µM
